{"source": "patent US20120277257A1", "about": "“Methods of Treating Diseases, Pharmaceutical Compositions, and Pharmaceutical Dosage Forms” (MYREXIS, INC., priority 2009, published 2012)", "key": {"[1]": {"system": "MIA PaCa-2 pancreatic cancer", "experiment": "MIA PaCa-2 pancreatic cancer xenograft", "conditions": "100 mg/kg ip, weekly, Day 15"}, "[2]": {"system": "NCI-N87 Her2+ gastric cancer", "experiment": "NCI-N87 (Her2+) gastric cancer xenograft in athymic nude mice", "type": "in vivo", "conditions": "40 mg/kg oral, thrice weekly for three weeks, day 21", "procedure": "The efficacy of Compound 1 was compared to that of SNX-5422 (Serenex, Pfizer, Inc.) on the growth of NCI-N87 (Her2+) human gastric cancer cells as a xenograft in athymic nude mice model. Animals were dosed with either 200 mg/kg of Compound 1 on days 1 through 21 or 40 mg/kg of SNX-5422 thrice weekly for three weeks. Tumor volumes and body weights were determined from Days 1 to 39.\nFive million NCI-N87 cells were implanted subcutaneously in the right flank of female nude mice (Hsd:athymic nude-Foxn1^nu). When the median tumor volume was approximately 123 mm^3, mice were randomized into three cohorts of ten animals. One cohort was dosed orally with vehicle, one cohort was dosed orally with Compound 1 (200 mg/kg) formulated in vehicle, and one cohort was dosed orally with SNX-5422 (40 mg/kg) formulated in dimethylacetamide/polyethylene glycol 300. Vehicle and Compound 1 were administered on days 1-21 and SNX-5422 was administered thrice weekly on Days 1, 3, 5, 8, 10, 12, 15, 17 and 19. The mice were observed daily for mortality and signs of toxicity.\nXenografted mice bearing N-87 tumors (median volume ˜125 mm^3) were dosed orally with Compound 1 for three weeks with the dosing schedules indicated in FIG. 4.\nAdditionally, xenografted mice bearing N-87 tumors (median volume ˜115 mm^3) were dosed orally with Compound 1 for twenty-one days at 200 mg/kg, once daily or 100 mg/kg, twice-daily as indicated in FIG. 5. Tumor growth inhibition (TGI) was monitored up to Day 39."}, "[3]": {"system": "A549 non-small cell lung cancer", "experiment": "A549 non-small cell lung cancer xenograft", "type": "in vivo, mice", "conditions": "maximum tolerated dose, oral once daily for 21 days, Day 22"}}}
{"smiles": "O=c1[nH]cc(F)c(=O)[nH]1", "note": "[5-Fluorouracil, reference compound]", "values": [{"measurement": "TGI (tumor growth inhibition)", "setting": "[1]", "value": 58, "unit": "%"}]}
{"smiles": "CC1(C)CC(=O)c2c(C(F)(F)F)nn(-c3ccc(C(N)=O)c(N[C@H]4CC[C@H](OC(=O)CN)CC4)c3)c2C1", "note": "[SNX-5422, reference compound]", "values": [{"measurement": "decrease in median tumor volume", "setting": "[2]", "value": 22, "unit": "%"}]}
{"smiles": "C#Cc1cccc(Nc2ncnc3cc(OCCOC)c(OCCOC)cc23)c1", "note": "[erlotinib]", "values": [{"measurement": "TGI (tumor growth inhibition)", "setting": "[3]", "value": 88, "unit": "%"}]}
